Experimental data taken from the supplement of paper PMC11451515.

System: NOMO1
Experiment: cell viability relative to DMSO control; higher = less cytotoxic
Settings: 48 h
Outline: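 Viability is a per-plate percentage relative to DMSO wells, with cell-free wells as background. CellTiter-Glo One luminescence was read after 48 h at 37°C on 1536-well plates (5 μl) of NOMO1 or SEM (500 cells/well) or P12-Ichikawa (1000 cells/well) leukemia cells. The cells had been adapted for at least four passages in each medium and pin-dosed with library compounds in DMSO from 47 μM to 0.79 nM in 11 threefold steps.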

[1] = HPLM + 10% dialyzed FBS, 0.000781 µM
[2] = HPLM + 10% dialyzed FBS, 0.00234 µM
[3] = HPLM + 10% dialyzed FBS, 0.00702 µM
[4] = HPLM + 10% dialyzed FBS, 0.0211 µM
[5] = HPLM + 10% dialyzed FBS, 0.0632 µM
[6] = HPLM + 10% dialyzed FBS, 0.19 µM
[7] = HPLM + 10% dialyzed FBS, 0.569 µM
[8] = HPLM + 10% dialyzed FBS, 1.71 µM
[9] = HPLM + 10% dialyzed FBS, 5.12 µM
[10] = HPLM + 10% dialyzed FBS, 15.4 µM
[11] = HPLM + 10% dialyzed FBS, 46.1 µM
[12] = RPMI 5 mM glucose + 10% FBS, 0.000781 µM
[13] = RPMI 5 mM glucose + 10% FBS, 0.00234 µM
[14] = RPMI 5 mM glucose + 10% FBS, 0.00702 µM
[15] = RPMI 5 mM glucose + 10% FBS, 0.0211 µM
[16] = RPMI 5 mM glucose + 10% FBS, 0.0632 µM
[17] = RPMI 5 mM glucose + 10% FBS, 0.19 µM
[18] = RPMI 5 mM glucose + 10% FBS, 0.569 µM
[19] = RPMI 5 mM glucose + 10% FBS, 1.71 µM
[20] = RPMI 5 mM glucose + 10% FBS, 5.12 µM
[21] = RPMI 5 mM glucose + 10% FBS, 15.4 µM
[22] = RPMI 5 mM glucose + 10% FBS, 46.1 µM
[23] = RPMI 5 mM glucose + 10% dialyzed FBS, 0.000781 µM
[24] = RPMI 5 mM glucose + 10% dialyzed FBS, 0.00234 µM
[25] = RPMI 5 mM glucose + 10% dialyzed FBS, 0.00702 µM
[26] = RPMI 5 mM glucose + 10% dialyzed FBS, 0.0211 µM
[27] = RPMI 5 mM glucose + 10% dialyzed FBS, 0.0632 µM
[28] = RPMI 5 mM glucose + 10% dialyzed FBS, 0.19 µM
[29] = RPMI 5 mM glucose + 10% dialyzed FBS, 0.569 µM
[30] = RPMI 5 mM glucose + 10% dialyzed FBS, 1.71 µM
[31] = RPMI 5 mM glucose + 10% dialyzed FBS, 5.12 µM
[32] = RPMI 5 mM glucose + 10% dialyzed FBS, 15.4 µM
[33] = RPMI 5 mM glucose + 10% dialyzed FBS, 46.1 µM

Molecule CN1\N=C(N)/C2=C[N]([C@@H]3O[C@H](CO[P](O)(O)=O)[C@@H](O)[C@H]3O)C4=C2C1=NC=N4 has a cell viability [1] of 108%, a cell viability [2] of 111% and a cell viability [3] of 124%. For the same molecule, the cell viability [4] was 111%, the cell viability [5] was 104% and the cell viability [6] was 88.6%. The cell viability [7] was 74.6%, the cell viability [8] was 67.7% and the cell viability [9] was 59.5%. It also gave a cell viability [10] of 30.1%, a cell viability [11] of 16.2% and a cell viability [12] of 109%. For the same molecule, the cell viability [13] was 107%, the cell viability [14] was 112% and the cell viability [15] was 99.9%. The cell viability [16] was 99.2%, the cell viability [17] was 89.6% and the cell viability [18] was 93.7%. For the same molecule, the cell viability [19] was 77.3%, the cell viability [20] was 84.1% and the cell viability [21] was 52.1%. For the same molecule, the cell viability [22] was 50%, the cell viability [23] was 98.8% and the cell viability [24] was 114%. The cell viability [25] was 104%, the cell viability [26] was 105% and the cell viability [27] was 94.7%. For the same molecule, the cell viability [28] was 82.3%, the cell viability [29] was 72.2% and the cell viability [30] was 61.5%. The cell viability [31] was 52.6%, the cell viability [32] was 38% and the cell viability [33] was 30.6%.

In the case of CNCc1ccc(-c2[nH]c3cc(F)cc4c3c2CCNC4=O)cc1, the cell viability [12] is reported as 111%, the cell viability [13] is reported as 117% and the cell viability [14] is reported as 126%. It also gave a cell viability [15] of 147%, a cell viability [16] of 133% and a cell viability [17] of 127%. The cell viability [18] was 128%, the cell viability [19] was 130% and the cell viability [20] was 120%. For the same molecule, the cell viability [21] was 132%, the cell viability [22] was 125% and the cell viability [23] was 103%. It also gave a cell viability [24] of 120%, a cell viability [25] of 131% and a cell viability [26] of 155%. The cell viability [27] was 139%, the cell viability [28] was 139% and the cell viability [29] was 125%. For the same molecule, the cell viability [30] was 136%, the cell viability [31] was 151% and the cell viability [32] was 145%. For the same molecule, the cell viability [33] was 141%.

With COc1ccc(C2Sc3ccccc3N(CCN(C)C)C(=O)C2OC(C)=O)cc1 (stereo unspecified) the cell viability [1] was 118%, the cell viability [2] was 114% and the cell viability [3] was 124%. The cell viability [4] was 114%, the cell viability [5] was 112% and the cell viability [6] was 114%. The cell viability [7] was 113%, the cell viability [8] was 120% and the cell viability [9] was 119%. It also gave a cell viability [10] of 110%, a cell viability [11] of 89.2% and a cell viability [12] of 97.3%. For the same molecule, the cell viability [13] was 108%, the cell viability [14] was 105% and the cell viability [15] was 96.9%. It also gave a cell viability [16] of 100%, a cell viability [17] of 108% and a cell viability [18] of 99%. For the same molecule, the cell viability [19] was 102%, the cell viability [20] was 100% and the cell viability [21] was 95.4%. The cell viability [22] was 94.8%, the cell viability [23] was 115% and the cell viability [24] was 104%. For the same molecule, the cell viability [25] was 112%, the cell viability [26] was 107% and the cell viability [27] was 113%. For the same molecule, the cell viability [28] was 111%, the cell viability [29] was 115% and the cell viability [30] was 109%. For the same molecule, the cell viability [31] was 100%, the cell viability [32] was 98.7% and the cell viability [33] was 85.2%.

Work on O=C\1N(N\C=C1[N]2C=CN=N2)C3=NC=NC(=C3)N4CCOCC4 yielded a cell viability [1] of 81.9%, a cell viability [2] of 84.5% and a cell viability [3] of 82%. The cell viability [4] was 83.9%, the cell viability [5] was 25.7% and the cell viability [6] was 25.8%. The cell viability [7] was 26.3%, the cell viability [8] was 23.8% and the cell viability [9] was 28.3%. For the same molecule, the cell viability [10] was 28.4%, the cell viability [11] was 26.6% and the cell viability [12] was 71.2%. The cell viability [13] was 83.9%, the cell viability [14] was 82.7% and the cell viability [15] was 87.8%. It also gave a cell viability [16] of 71%, a cell viability [17] of 16.8% and a cell viability [18] of 12.8%. For the same molecule, the cell viability [19] was 14.9%, the cell viability [20] was 15.6% and the cell viability [21] was 14.2%. It also gave a cell viability [22] of 16.5%, a cell viability [23] of 70.9% and a cell viability [24] of 79.4%. It also gave a cell viability [25] of 81.5%, a cell viability [26] of 88.9% and a cell viability [27] of 72.9%. It also gave a cell viability [28] of 29.9%, a cell viability [29] of 14.4% and a cell viability [30] of 19.6%. It also gave a cell viability [31] of 18.6%, a cell viability [32] of 19.4% and a cell viability [33] of 18.8%.

Molecule Cn1cc(/C=C2\C(=O)Nc3cccnc32)c2ccccc21 has a cell viability [1] of 118%, a cell viability [2] of 138% and a cell viability [3] of 122%. It also gave a cell viability [4] of 138%, a cell viability [5] of 157% and a cell viability [6] of 138%. The cell viability [7] was 138%, the cell viability [8] was 146% and the cell viability [9] was 126%. For the same molecule, the cell viability [10] was 123%, the cell viability [11] was 98.8% and the cell viability [12] was 113%. For the same molecule, the cell viability [13] was 119%, the cell viability [14] was 130% and the cell viability [15] was 129%. The cell viability [16] was 143%, the cell viability [17] was 123% and the cell viability [18] was 124%. For the same molecule, the cell viability [19] was 142%, the cell viability [20] was 125% and the cell viability [21] was 77.1%. For the same molecule, the cell viability [22] was 89.3%, the cell viability [23] was 117% and the cell viability [24] was 118%. For the same molecule, the cell viability [25] was 117%, the cell viability [26] was 132% and the cell viability [27] was 130%. For the same molecule, the cell viability [28] was 140%, the cell viability [29] was 141% and the cell viability [30] was 147%. The cell viability [31] was 128%, the cell viability [32] was 78.2% and the cell viability [33] was 84.3%.

In the case of CCC(=O)N[C@H]1CC[C@H](C(=O)N(C)c2ccc(-c3nc4ccccc4o3)cc2)C1, the cell viability [1] is reported as 85.7%, the cell viability [2] is reported as 106% and the cell viability [3] is reported as 74.4%. It also gave a cell viability [4] of 111%, a cell viability [5] of 103% and a cell viability [6] of 92.5%. It also gave a cell viability [7] of 97.6%, a cell viability [8] of 98.2% and a cell viability [9] of 101%. The cell viability [10] was 98.5%, the cell viability [11] was 78.3% and the cell viability [12] was 95.8%. The cell viability [13] was 100%, the cell viability [14] was 89.6% and the cell viability [15] was 85.1%. It also gave a cell viability [16] of 99.4%, a cell viability [17] of 101% and a cell viability [18] of 97.4%. It also gave a cell viability [19] of 94.2%, a cell viability [20] of 86% and a cell viability [21] of 88.6%. It also gave a cell viability [22] of 96.9%, a cell viability [23] of 83.8% and a cell viability [24] of 89.2%. It also gave a cell viability [25] of 89.8%, a cell viability [26] of 87.8% and a cell viability [27] of 86.1%. It also gave a cell viability [28] of 86%, a cell viability [29] of 94.1% and a cell viability [30] of 90.4%. The cell viability [31] was 84.6%, the cell viability [32] was 81% and the cell viability [33] was 84.6%.

C[C@@H](NC(=O)c1ncnc(N)c1Cl)c1ncc(C(=O)Nc2cc(C(F)(F)F)c(Cl)cn2)s1 gave a cell viability [12] of 99.4%, a cell viability [13] of 124% and a cell viability [14] of 124%. It also gave a cell viability [15] of 121%, a cell viability [16] of 125% and a cell viability [17] of 122%. The cell viability [18] was 138%, the cell viability [19] was 127% and the cell viability [20] was 114%. The cell viability [21] was 103% and the cell viability [22] was 88.3%.

C=CC(=O)Nc1cccc(Nc2nc(NC3CCC(N(C)C)CC3)nc3c2ncn3C(C)C)c1 (stereo unspecified) gave a cell viability [1] of 96.7%, a cell viability [2] of 120% and a cell viability [3] of 114%. For the same molecule, the cell viability [4] was 94.7%, the cell viability [5] was 111% and the cell viability [6] was 109%. The cell viability [7] was 125%, the cell viability [8] was 73.8% and the cell viability [9] was 7.49%. For the same molecule, the cell viability [10] was 5.11%, the cell viability [11] was 4.77% and the cell viability [12] was 127%. It also gave a cell viability [13] of 111%, a cell viability [14] of 115% and a cell viability [15] of 100%. For the same molecule, the cell viability [16] was 103%, the cell viability [17] was 104% and the cell viability [18] was 99.6%. It also gave a cell viability [19] of 98.2%, a cell viability [20] of 11.9% and a cell viability [21] of 5.39%. It also gave a cell viability [22] of 3.68%, a cell viability [23] of 103% and a cell viability [24] of 98.2%. The cell viability [25] was 103%, the cell viability [26] was 103% and the cell viability [27] was 106%. It also gave a cell viability [28] of 105%, a cell viability [29] of 105% and a cell viability [30] of 72.9%. For the same molecule, the cell viability [31] was 7.93%, the cell viability [32] was 5.45% and the cell viability [33] was 4.26%.
